Assay results taken from a melting point compilation (Tetko et al.; mined from patent text by program, amines drawn as free bases though some values may be those of a salt).

First: CCn1nc(C)c2c1C1=NC(C)CN1C(C)=N2 (centres undefined)
Second: Cc1nc(Cl)c(C)c(Cl)c1C
The melting point of the first is higher: 145 to 147 °C for the first, 67 to 68 °C for the second.

First: CC(C)(C)OC(=O)N1CCC(Cn2cc(S(=O)(=O)c3ccccc3)c3ccccc32)CC1
Second: CCCCCCCNC(=O)Nc1ccc(N2CCOCC2)cc1C(=O)NCC1CCN(C(c2ccccc2)c2ccccc2)CC1
The melting point of the first is higher: 181 to 182 °C for the first, 153 to 155 °C for the second.

Compared with `O=c1[nH]c2ncc(-c3ccc(-n4ccnc4)cc3)nc2n1CC1CCCCC1`, `C[C@@H](Nc1ncnc2[nH]c(-c3ccc(CNC(=O)CN4CCCCC4)cc3)cc12)c1ccccc1` is lower in melting point: 284 to 287 °C for the first, 194 to 196 °C for the second.

First: O=C(Cc1c(-c2ccccc2)c2cc(CN3CCN(c4ccccc4)CC3)c(Cl)cc2oc1=O)Nc1ccc(Cl)cc1C(F)(F)F
Second: CN1C(=O)C(NC(=O)c2cc3cc(O)ccc3[nH]2)N=C(c2ccccc2)c2ccccc21 (centres undefined)
The melting point of the first is higher: 201 to 203 °C for the first, 120 to 130 °C for the second.

First: CCCCCCCCCCCCCCCCCCOCC(O)COC(c1ccccc1)(c1ccccc1)c1ccccc1 (centres undefined)
Second: CCCCCCCCCCCCCCCCOc1ccc(OCC(=O)Nc2cccc(CBr)c2)cc1
The melting point of the first is lower: 53 to 55 °C for the first, 183 to 186 °C for the second.

First: O=c1c2c(c3cccnc3n1-c1ccccc1)OC(CO)C2 (centres undefined)
Second: CC(C)n1nc(-c2sc(NC(=O)CCNCc3ccccn3)nc2-c2ccccc2)ccc1=O
The melting point of the first is higher: 267 to 268 °C for the first, 200 to 201 °C for the second.

Compared with `O=c1c2ccccc2c(-c2ccc(Cl)cc2)nn1CCc1ccncc1`, `Cc1ccc(-c2nn(CCO)c(=O)c(-c3ccccc3)c2-c2ccc(C)cc2)cc1` is higher in melting point: 142 to 144 °C for the first, 192 to 194 °C for the second.

First: CCOC(=O)C1=C(COCCO)NC(C)=C(C(=O)OC)C1c1ccccc1Cl (centres undefined)
Second: CCOC(=O)c1ccc2ccccc2c1O
The melting point of the first is higher: 125 to 130 °C for the first, 48.5 to 49 °C for the second.

`O=C(NCCOc1ncc(C(F)(F)F)cc1Cl)c1cc([N+](=O)[O-])ccc1Cl` and `CCCCNC(=O)NC(=O)C(C)Oc1ccc(Oc2ncc(C(F)(F)F)cc2Cl)cc1` (centres undefined) fall in the same range of melting point: 126 to 127 °C for the first, 126 to 127 °C for the second.

Compared with `CCOC(=O)C=C(c1ccccc1)c1cc([N+](=O)[O-])ccc1NS(=O)(=O)c1ccc(OC)cc1`, `CNC(=O)c1cc(-c2ccc(OC)cc2)nn(Cc2ccc([N+](=O)[O-])cc2)c1=O` is higher in melting point: 126 to 129 °C for the first, 199 °C for the second.

First: Cc1c(-c2ccc3sc(=O)[nH]c3c2)nc2ncccn12
Second: c1ccc2c(c1)-c1nccc3ccnc-2c13
The melting point of the first is higher: over 290 °C for the first, 152 to 153 °C for the second.

Compared with `CCOC(=O)c1cnc2cn[nH]c2c1Nc1ccccc1`, `COc1ccc(NC(=O)Nc2ccccc2)cc1` is higher in melting point: 164 to 165 °C for the first, 196 to 198 °C for the second.

First: CCOC(Cc1cnc2ccc(OCc3ccc([N+](=O)[O-])cc3)cc2c1)C(=O)O (centres undefined)
Second: CCOC(=O)C(=Cc1ccc(-c2nc3ccc(O)cc3o2)cc1)C(=O)OCC
The melting point of the first is higher: 169 to 174 °C for the first, 153 to 155 °C for the second.

Compared with `c1ccc(NC2=NC(Nc3ccccc3)(c3ccccc3)C(c3ccccc3)=N2)cc1` (centres undefined), `Cc1cc(NCc2ccc(-c3ccccc3-c3nnn(C(c4ccccc4)(c4ccccc4)c4ccccc4)n3)cc2)c(I)c(C)n1` is higher in melting point: 153 to 156 °C for the first, 209 to 211 °C for the second.

First: C=CCNC(=O)n1nc(O)cc1C
Second: CC(=O)Nc1cc(C=CN(C)C)c([N+](=O)[O-])cn1
The melting point of the first is lower: 80 to 83 °C for the first, 193 to 196 °C for the second.

Compared with `CCOC(=O)N1N=C(c2ccc(N)cc2)c2cc(Cl)c(Cl)cc2CC1C` (centres undefined), `CCOC(=O)c1nn(-c2ccc(Cl)cc2Cl)c(-c2ccc(Br)cc2)c1CC` is lower in melting point: 190 to 192 °C for the first, 108 °C for the second.

First: NC1C(=O)N(CC(O)C(F)(F)F)c2ccccc2-c2ccccc21 (centres undefined)
Second: NC(=O)Cc1cccc(Oc2ccccc2)c1
The melting point of the first is higher: 192 to 194 °C for the first, 115 to 117 °C for the second.

First: CC#CCN(C)c1ccc(OC23CC4CC(CC(C4)C2)C3)cc1
Second: CC(=O)OC12CC3CC(CC(C3)C1)C2
The melting point of the first is higher: 180 to 181 °C for the first, 144 to 145 °C for the second.

First: CCCc1nc(-n2cccc2)c(CO)[nH]1
Second: CC1CCc2c(-n3cccc3)ccc3c(=O)c(C(=O)O)cn1c23 (centres undefined)
The melting point of the first is lower: 155 to 158 °C for the first, 303 to 305 °C for the second.

First: CCOC(OCC)c1cc(-n2c(=O)cc(C(F)(F)F)n(N)c2=O)ccc1Cl
Second: CCOC(=O)c1ccc(COCc2csc3nc(C(=O)NCc4cccc(N(C)C(=O)C(F)(F)F)c4)[nH]c(=O)c23)cc1
The melting point of the first is lower: 80 to 81 °C for the first, 208 to 209 °C for the second.

Compared with `CCNC(=S)NC1CCCCc2sccc21` (centres undefined), `Cc1nccn1CC1CCc2c(c3ccccc3n2C)C1NO` (centres undefined) is higher in melting point: 117 to 120 °C for the first, 140 to 144 °C for the second.

Compared with `CC(Cl)(Cl)C(NC(=O)c1cccc(Cl)c1)NC(=NC#N)Nc1ccc(F)nc1` (centres undefined), `O=C(Nc1ccc2[nH]ccc2c1)c1ccc(F)cc1` is higher in melting point: 124 to 125 °C for the first, 205 to 207 °C for the second.

Compared with `CCCN(CCC)Cc1noc(-c2ncn3c2[C@@H]2CCCN2C(=O)c2c(Cl)cccc2-3)n1`, `CCCCCCCOc1ccc2c(c1)N(CCCN1CCC(CCO)CC1)c1cccc(S(=O)(=O)N(C)C)c1S2` is lower in melting point: 155 to 158 °C for the first, 80 °C for the second.

First: COc1ccc2c(c1)C13CCCOC1(C)C(C2)N(C(=O)C1CCC1)CC3 (centres undefined)
Second: COc1ccc2c(c1)CCN(CCc1ccc(NC=O)cc1)C2C (centres undefined)
The melting point of the first is higher: 166 to 167 °C for the first, 93 to 96 °C for the second.

Compared with `O=C(NCc1ccc(Cl)cc1)c1cn(CCN2CCCCC2)c2ccc(C#CCO)cc2c1=O`, `COc1ccccc1NC(=O)Nc1nc(N2CCOCC2)nc(N(CCC(=O)O)Cc2ccc(Cl)c(Cl)c2)n1` is higher in melting point: 176 to 180 °C for the first, 198 to 203 °C for the second.

First: NC(=O)c1nccn1C1Cc2cc(F)ccc2C1=O (centres undefined)
Second: CC(C(=O)O)c1ccc(-c2ccc(Br)cc2)c(F)c1 (centres undefined)
The melting point of the first is higher: 221 °C for the first, 133 to 135 °C for the second.

Compared with `CC(=O)Nc1cc(N)ccc1OCCCN`, `COc1cc(Br)c(OC(=O)c2ccc(OC)c(F)c2)c(NC(=O)c2ccc(OC)c(F)c2)c1` is higher in melting point: 102 to 106 °C for the first, 184 to 186 °C for the second.

Compared with `C=C1C(c2ccccc2)=C(c2ccc(S(C)(=O)=O)cc2)C1(Cl)Cl`, `CS(=O)(=O)c1ccc(-c2cc(C#N)c(=O)[nH]c2-c2ccc(F)cc2)cc1` is higher in melting point: 124 to 126 °C for the first, 294 to 296 °C for the second.

First: Cc1csc2nc(S(=O)(=O)Nc3cccc4sccc34)nn12
Second: Cc1ccc(-c2c(CNC(=O)OC(C)(C)C)c(CC(C)C)nc3ccc(-c4nc(C(=O)OC(C)C)cs4)cc23)cc1
The melting point of the first is higher: 205 to 209 °C for the first, 190 to 191 °C for the second.

First: NC(=O)N(O)Cc1ccc(CCCCCC(F)(F)F)s1
Second: CCCCNc1ccc2nn(CCC)c(=O)n2n1
The melting point of the first is lower: 94 °C for the first, 183 to 185 °C for the second.

First: COc1ccc(C2(C#N)C3CC4CC(C3)CC2C4)cc1 (centres undefined)
Second: COc1cc2ncc(C#N)c(Oc3cccc(Br)c3)c2cc1OC
The melting point of the first is lower: 165 to 166 °C for the first, 187 to 190 °C for the second.

First: Cc1ccc2c(c1)C=Cc1cc(C)ccc1C2c1cn(-c2ccnc(NCC(=O)O)n2)c(=O)[nH]c1=O
Second: O=c1ccn(C2CC(O)C(COC3(c4ccccc4)c4ccccc4Oc4ccccc43)O2)c(=O)[nH]1 (centres undefined)
The melting point of the first is higher: 260 to 263 °C for the first, 157 to 160 °C for the second.

First: Clc1ccc2c(c1)C(c1ccccc1)=NCc1n[nH]cc1-2
Second: O=C(CNC(=O)OC(c1ccccc1)c1ccccc1)Oc1c(Cl)c(Cl)c(Cl)c(Cl)c1Cl
The melting point of the first is higher: 241 to 243 °C for the first, 171 to 172 °C for the second.

First: O=C(O)c1ccc2c(c1)CCCS2(=O)=O
Second: C=CCN1CCCC1CNC(=O)c1cc(S(=O)(=O)NC)cc2c1OCCO2 (centres undefined)
The melting point of the first is higher: 246 to 249 °C for the first, 101 to 102 °C for the second.

Compared with `O=C(Cl)N(c1ccc(F)cc1)c1ccc(F)cc1`, `Oc1c(Br)cc(Br)c2c(Cl)ncnc12` is higher in melting point: 53 to 54 °C for the first, 198 to 199 °C for the second.

First: Cc1cc(C)c(C2C(=O)CC(CC3CCOC3)CC2=O)c(C)c1 (centres undefined)
Second: O=C1CCCCCCCCCCCCCCCCC1O (centres undefined)
The melting point of the first is higher: 62 to 64 °C for the first, 31 to 32 °C for the second.

Compared with `OCCCOc1c(Cl)cc(OCC=C(Cl)Cl)cc1Cl`, `CC(C)C(=O)N(C(=O)N(C)C)c1snc(C(C)C)c1C#N` is higher in melting point: 56.6 °C for the first, 127 to 129 °C for the second.
